Experimental data as given in article PMC9535710 (ACS Omega, 2022).

Assays:
[1] = SRB cytotoxicity, K562 leukemia cells; type: cell-based, human; conditions: human, K562 leukemia cells
[2] = SRB cytotoxicity, HCT-15 colon cells; type: cell-based, human; conditions: human, HCT-15 colon tumor cells
[3] = SRB cytotoxicity, MCF-7 breast cells; type: cell-based; conditions: human, MCF-7 breast tumor cells
[4] = SRB cytotoxicity, SKLU-1 lung cells; type: cell-based, human; conditions: human, SKLU-1 lung tumor cells
U251 (glioblastoma) = test: SRB cytotoxicity, U251 glioblastoma cells; type: cell-based, human; conditions: Homo sapiens, U-251, read-out: IC50 U251
K562 (leukemia) = test: SRB cytotoxicity, K562 leukemia cells; type: cell-based, human; conditions: Homo sapiens, K562, read-out: IC50 K562
HCT-15 (colon) = test: SRB cytotoxicity, HCT-15 colon cells; type: cell-based, human; conditions: Homo sapiens, HCT-15, read-out: IC50 HCT-15
SKLU-1 (lung) = test: SRB cytotoxicity, SKLU-1 lung cells; type: cell-based, human; conditions: Homo sapiens, SK-LU-1, read-out: IC50 SKLU-1
[5] = SRB cytotoxicity, U251 glioblastoma cells; type: cell-based, human; conditions: human, U251 glioblastoma cells
[6] = SRB cytotoxicity, PC-3 prostate cells; type: cell-based; conditions: human, PC-3 prostate tumor cells

| Structure (SMILES) | inhibition at 50 μM [1] | inhibition at 50 μM [2] | inhibition at 50 μM [3] | inhibition at 50 μM [4] | IC50 (U251 (glioblastoma)) | IC50 (K562 (leukemia)) | IC50 (HCT-15 (colon)) | IC50 (SKLU-1 (lung)) | inhibition at 50 μM [5] | inhibition at 50 μM [6] |
| --- | --- | --- | --- | --- | --- | --- | --- | --- | --- | --- |
| CC(C)=CCC[C@@H](C)[C@@H]1CC[C@]2(C)C3=C(CC[C@@]12C)[C@@]1(C)CC[C@H](O)C(C)(C)[C@@H]1CC3 [euphol (2), eupha-8,24-dien-3β-ol] | 26.9% | 2.18% | 36.6% | 4.9% | – | – | – | – | – | – |
| COc1cc([C@@H]2c3cc4c(cc3[C@@H](O[C@@H]3O[C@@H]5CO[C@@H](C)O[C@H]5[C@H](O)[C@H]3O)[C@H]3COC(=O)[C@H]23)OCO4)cc(OC)c1O [etoposide, reference compound] | – | – | – | – | 2400 ± 200 nM | 2200 ± 700 nM | 4800 ± 500 nM | 2600 ± 300 nM | – | – |
| C=C(C)[C@@H]1CC[C@]2(C)CC[C@]3(C)[C@H](CC[C@@H]4[C@@]5(C)CC[C@H](O)C(C)(C)[C@@H]5CC[C@]43C)[C@@H]12 [lupeol (5), lupeol] | 48.8% | 10.4% | 22.3% | 13% | – | – | – | – | 27.3% | 50.7% |
